Laboratory results: patent US20090061022A1, “Pharmaceutical composition comprising arsenite for the treatment of malignancy” (priority 2004, published 2009)
Values joined by “and” are separate entries in the source; they are usually repeats but may differ in a detail not shown here. Identical values can stand only once.

Columns and labels:
RXF 944LX = assay: Dose finding study in human renal cancer model RXF 944LX in nude mice (i.p. days 0, 7, 14); conditions: for BW loss % (day) / Drug-related deaths / Rating / SGD (specific growth delay) / T/C %: days 0, 7, 14
From the text: In a dose finding study, the potential anticancer activity of sodium meta-arsenite and arsenic acid sodium salt versus arsenic trioxide was examined in the human renal cancer model, RXF 944LX.
Cancer fragments (1-2 mm in diameter), obtained from xenografts in serial passage in nude mice, were implanted subcutaneously (S.C.) in a flank of male NRMI nude mice (one fragment per mouse). Mice with appropriate cancer volumes (5-7 mm in diameter) were randomly distributed to treatment and control groups (4 mice/group). The start of treatment was day 0. Cancer volume and body weights were measured at least twice per week.
1) Sodium meta-arsenite (3, 10, 30 mg/kg/day), 2) Arsenic acid sodium salt (3, 10, 30 mg/kg/day) and 3) Arsenic trioxide (3, 10, 30 mg/kg/day) were administered intraperitoneally (i.p.) once daily on days 0, 7 and 14.
Stock solution of sodium meta-arsenite and arsenic acid sodium salt (3 mg/ml) were prepared in 5% (w/v) dextrose solution, respectively, to minimize acute arsenic toxicity. For arsenic trioxide, 9 mg of arsenic trioxide was dissolved in 1M NaOH (75 μl) followed by mixing with sterile aqua injectabilia (2175 μl) and sterile 20% (w/v) dextrose in water (500 μl). Further dilution to the desired concentration was done with a 5% dextrose solution to give a final concentration of 3 mg/ml.
The cancer volume of each animal was determined by two-dimensional measurement using calipers. The volume was calculated according to the formula: (a×b^2)×0.5; wherein a and b represent two perpendicular diameters in which a (length) is the larger diameter and b (width) the smaller diameter.
Relative cancer volumes (RCV) were calculated for each individual cancer by dividing the cancer volume on day X by the cancer volume on day 0 multiplied by 100%. The cancer volume of a treatment group was expressed as the median RCV of all mice of the group. Median RCV values were used for drawing growth curves and treatment evaluation. Optimal cancer growth inhibition at a particular day within the treatment period was calculated from the median RCV values of the treated (T) versus the controlled (C) group multiplied by 100%. A T/C value<50% was considered as anti-cancer activity.

ALL-SCID 4 = assay: Anticancer activity in human leukemia model ALL-SCID 4; conditions: for BW loss % (day) / Drug-related deaths / T/C %: days 25-35
From the text: Anticancer activity of the sodium meta-arsenite and arsenic trioxide against two human paediatric acute lymphoblastic leukemia (ALL) models in vivo, ALL-SCID 4 was investigated to compare.
Male NOD/SCID mice (deficient in T and B lymphocytes, NK cells and functional macrophages) were transplanted s.c. on day 0 with fragments of ALL-SCID 4 cancers, which were obtained from mice used for routine passage of the cancers. Mice were randomized to the scheduled treatment groups.
Sodium meta-arsenite was administered orally at 2, 4 and 6 mg/kg/day (⅓ MTD, ⅔ MTD and MTD) once every day from day 34-54 after transplantation. The vehicle control (5% glucose in water) was administered i.p. (10 ml/kg).
Sodium meta-arsenite was dissolved in ready-to-use sterile infusion (5% (w/v) glucose in aqua injectabila). Arsenic trioxide was dissolved in 25 mM NaOH then dissolved in 5% glucose in aqua injectabila. The solutions were prepared freshly on the day of therapy for each administration.

[1] = rats, orally; cited from earlier work
[2] = cold water; cited from earlier work
[3] = system: panel of forty-one (41) human cancer cell lines; assay: Cytotoxic activity, panel of forty-one (41) human cancer cell lines
From the text: In a next study, the cytotoxic activity of sodium meta-arsenite was head-to-head compared with arsenic trioxide in panels loaded with 41 cancer cell lines from ten human cancers.

[4] = 10 mg/kg i.p., listed as arsenic trioxide
[5] = panel of 41 human cancer cell lines

In the case of arsenic trioxide, the “BW loss % (day)” value (RXF 944LX; 3 mg/kg i.p.) is reported as “+8.4 (14) %”, the Drug-related deaths (RXF 944LX; 3 mg/kg i.p.) is reported as 0/4 and the Rating (RXF 944LX; 3 mg/kg i.p.) is reported as “+ (+T/C < 50)”. The “SGD (specific growth delay)” value (RXF 944LX; 3 mg/kg i.p.) was −0.1, the T/C % (RXF 944LX; 3 mg/kg i.p.) was 31% and the “BW loss % (day)” value (RXF 944LX; 10 mg/kg i.p.) was −5.0 (11) %. The Drug-related deaths (RXF 944LX; 10 mg/kg i.p.) was 1/4, the Rating (RXF 944LX; 10 mg/kg i.p.) was “+ (+T/C < 50)” and the “SGD (specific growth delay)” value (RXF 944LX; 10 mg/kg i.p.) was −0.2. For the same substance, the T/C % (RXF 944LX; 10 mg/kg i.p.) was 41%, the “BW loss % (day)” value (RXF 944LX; [4]) was 5% and the Drug-related deaths (RXF 944LX; [4]) was “one (1) out of four (4) mice died”. The Drug-related deaths (RXF 944LX; 30 mg/kg i.p.) was 4/4, the Drug-related deaths (RXF 944LX; 30 mg/kg i.p., listed as arsenic trioxide) was “died within a few days after the first injection” and the “Maximum Tolerated Dose (MTD)” value (RXF 944LX; i.p. once daily on days 0, 7 and 14, RXF 944LX bearing nude mice) was 10 mg/kg/day. The “BW loss % (day)” value (ALL-SCID 4; 2 mg/kg i.p.) was “+9 (34) %”, the Drug-related deaths (ALL-SCID 4; 2 mg/kg i.p.) was 0/8 and the T/C % (ALL-SCID 4; 2 mg/kg i.p.) was 71%. For the same substance, the “BW loss % (day)” value (ALL-SCID 4; 4 mg/kg i.p.) was “+10 (34) %”, the Drug-related deaths (ALL-SCID 4; 4 mg/kg i.p.) was 0/8 and the T/C % (ALL-SCID 4; 4 mg/kg i.p.) was 97%. The “BW loss % (day)” value (ALL-SCID 4; 6 mg/kg i.p.) was “+10 (34) %”, the Drug-related deaths (ALL-SCID 4; 6 mg/kg i.p.) was 0/8 and the T/C % (ALL-SCID 4; 6 mg/kg i.p.) was 58%. For the same substance, the MTD (ALL-SCID 4; small dose finding studies prior to the ALL-SCID 4 study) was 6 mg/kg/day, the LD50 [1] was 15.1 mg/kg and the Solubility [2] was “sparingly and extremely slowly soluble”. The “activity in panel of 41” value ([3]; 0.1 μg/ml, 0.01 μg/ml and 0.001 μg/ml) was “no observed activity”, the “cancer cell lines that responded, percent of 41” value ([3]; 1 μg/ml, more than 70% growth inhibition) was 2% and the “cancer cell lines in which active, percent of 41” value ([3]; 10 μg/ml) was 56%. For the same substance, the “selectivity (individual IC70<½ mean IC70), fraction of cell lines” value (shortened to “selectivity … fraction of cell lines”) ([3]; breast (mammary) cancer cell lines) was “¼”, the “selectivity … fraction of cell lines” value ([3]; leukemia cell lines) was “¾” and the “selectivity … fraction of cell lines” value ([3]; melanoma cell lines) was 2/7. For the same substance, the “fold less potent compared to sodium meta-arsenite, IC50” value ([3]; on the basis of μM) was 17 fold, the “fold less potent compared to sodium meta-arsenite, IC70” value ([3]; on the basis of μM) was 12 fold and the “fold less potent compared to sodium meta-arsenite, IC50” value ([3]; on μg/ml) was 27 fold. The “fold less potent compared to sodium meta-arsenite, IC70” value ([3]; on μg/ml) was 18 fold, the “Mean IC50” value [3, 5] was 3.462 µg/mL and the “Mean IC70” value [3, 5] was 6.022 μg/ml and 30.44 μM. The “Mean IC90” value [3, 5] was 10.307 µg/mL, the “Mean IC70” value ([3]; panel of 41 human cancer cell lines, listed as arsenic trioxide) was 6.022 μg/ml and 30.44 μM and the IC50 ([3]; read-out: Mean IC50, panel of 41 human cancer cell lines) was 17.5 µM. For the same substance, the IC90 ([3]; read-out: Mean IC90, panel of 41 human cancer cell lines) was 52.1 µM.
